From patent US5968526A, “T cell epitopes of the major allergens from Dermatophagoides (house dust mite)” (Immulogic Pharamaceutical Corporation, priority 1995, dated 1999)

Experiments:
Assay type in all cases: cell-based, human
[1] = tested on: T cell cultures reactive with Der p I from house dust mite-allergic subjects; assay: secondary T cell proliferation assay, Group I (Der p I) overlapping and candidate/unique peptides; percent of T cell reactivity; conditions: patient 1733; highest S.I. ≥2.0 recorded
Text: To determine whether a peptide (candidate peptide) or a combination of candidate peptides are likely to comprise a sufficient percentage of the T cell reactivity of house dust mite protein allergens, to induce T cell nonresponsiveness in a substantial percentage of a population of individuals sensitive to house dust mite allergen, an algorithm can be used. In accordance with one such algorithm, a set of overlapping peptides is produced by systematically dividing the protein allergen(s) of interest into al least two overlapping peptide regions of desired lengths (e.g., of about 12-30 amino acid residues in length, preferably not longer than about 25 amino acid residues in length with about 5-15 amino acid residues of overlap). This division into peptide regions can be arbitrary, can be made according to an algorithm, or can be wholly or partially based on regions of house dust mite Group I and/or Group II protein allergens known to comprise at least one T cell epitope. Preferably, at least 50% of the entire house dust mite protein allergen sequence and more preferably, the entire house dust mite protein allergen sequence is divided into two or more peptides. A human T cell stimulation index is determined for each of the peptides in an in vitro T cell proliferation assay as described herein for each individual tested in a population of individuals sensitive to the protein antigen. For example both WO93/08279 and WO94/24281 disclose T cell studies with overlapping peptides derived from Der p I, Der p II, Der f I and Der f II. A candidate peptide or combination of candidate peptides is selected based, at least in part, on the mean human T cell stimulation index of the candidate peptide in the set of peptides tested and the positivity index of the candidate peptide in the set of peptides tested (see, FIGS. 3 and 4). The human T cell stimulation index for the candidate peptide(s) is summed. For each individual, the human T cell stimulation index for the candidate peptide(s) is divided by the sum of the human T cells stimulation indices of the remaining peptides in the set of peptides tested to determine a percent of T cell reactivity as shown below:
Alternatively, the presence of T cell epitopes in the candidate peptide dependent on amino acids residues in an overlapping peptide located at either the N-terminus or C-terminus of the candidate peptide in the amino acid sequence of the protein antigen, but which epitopes are not present in the candidate peptide can be considered in calculating the percent of T cell reactivity in the candidate peptide by use of the following formula: [formula]
In this formula, "NT flanking peptide" refers to a peptide which comprises amino acid residues which overlap with amino acid residues located at the N-terminus of the candidate peptide in the amino acid sequence of the protein antigen from which the peptide is derived; "CT flanking peptide" refers to a peptide which comprises amino acid residues which overlap with amino acid residues located a the C-terminus of the candidate peptide in the amino acid sequence of the protein antigen from which the peptide is derived. In this calculation stimulation indices for the candidate peptide, the N-terminal flanking peptide and the C-terminal flanking peptide are added and divided by the sum total of the stimulation indices for the entire set of overlapping peptides obtain a percent of T cell reactivity for the candidate peptide. If a combination of two or more candidate peptides is selected each of which contains amino acid residues which overlap, this calculation cannot be used to determine a percent of T cell reactivity for each candidate peptide separately. However, a total percent of T cell reactivity for the combination of candidate peptides can be obtained. In this situation, the stimulation indices for all of the candidate peptides which overlap is included in the calculation. […]

[2] = tested on: T cell lines primed in vitro to Der p I; assay: secondary proliferation of Der p I-primed T cell lines (Examples V, VII, XI); conditions: for T cell reactivity: overlapping Der p I peptides, 33 positive experiments
Summary of the method: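 PBMC were primed with native or recombinant Der p I (10 or 20 μg/ml) for 7 days, then expanded with IL-2 and IL-4. Resting T cells (2×10^4) were cultured 3 days with irradiated autologous EBV-B cells or PBMC and titrated protein or peptides, then pulsed 16 h with 1 μCi ³H-thymidine. S.I. was peak-response CPM over medium-only CPM, with S.I. ≥2.0 scored positive.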

[3] = tested on: PBMC from mite-allergic patient; assay: primary T cell (PBMC) proliferation, mite-allergic patient, tritiated thymidine; conditions: medium 1071 ± 30
Method: Peripheral blood mononuclear cells (PBMC) were purified by Ficoll-Hypaque centrifugation of a peripheral blood specimen from mite-allergic patient and were assayed for proliferation in response to various antigens, i.e., affinity-purified Der p I, affinity purified Der p II, various Der p I and Der p II peptides. For assay, 5×10^4 PBMC were cultured in triplicate microwells for 7 days at 37° C. in the presence of various concentrations of antigen in 200 μl RPMI-1640 containing 5% human AB serum. Each well then received 1 μCi tritiated thymidine for 16 hours. The counts incorporated were collected onto glass fiber filters and processed for liquid scintillation counting. […] The CPM +/- standard deviation are shown. The stimulation index of each response (S.I.) is the ratio of the ^3 H-thymidine CPM incorporated by the cells in response to antigen divided by the ^3 H-thymidine CPM incorporated by cells in medium only. […] Thus, these peptides contain Der p I or Der p II T cell epitopes recognized by T cells from this particular allergic patient.

[4] = tested on: T cell lines primed in vitro to Der p II; assay: secondary proliferation of Der p II-primed T cell lines (Examples VIII, X, XI); conditions: for T cell reactivity: overlapping Der p II peptides, FIG. 9; for T cell reactivity / T cell response to Der f II peptides: 26 positive experiments; for T cell response: patient 348, native Der p II primed, data not shown; for T cell response to Der f II peptides: Der p II primed, FIG. 12
Summary of the method: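 PBMC from house dust mite-allergic patients primed in vitro with native or recombinant Der p II at 20 μg/ml (or recombinant at 3 μg/ml), with x-irradiated (3500 Rads) autologous PBMC as antigen-presenting cells. Lines then challenged with Der p II-derived peptides; proliferation expressed as S.I., ranked sum scoring top three responses 3, 2, 1.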

[5] = tested on: T cell lines primed in vitro to Der f II; assay: secondary proliferation of Der f II-primed T cell lines (Examples IX, X, XI); conditions: for T cell response to Der p II peptides: Der f II primed, FIG. 11; for T cell response to Der p II peptides / T cell reactivity: 10 positive experiments; for T cell reactivity: overlapping Der f II peptides, FIG. 10
Method: Experiments similar to those of Example V were performed to determine the T cell-reactive areas of the Der f II protein. For example, PBMC from house dust mite-allergic patient 384 were stimulated in vitro with purified recombinant Der f II and the T cell line was then challenged in the presence of x-irradiated (25,000 Rads) autologous Epstein-Barr virus transformed B cells as antigen presenting cells with various overlapping […]. The results of this proliferation assay indicate that T cells from this particular patient respond well to peptides DF II-1, DF II-2, DF II-3.1, DF II-4.5, DF II-15, DF II-16, and DF I-19.1 (data not shown).
The above procedure was followed with 10 patients, except in individual cases, T cell lines were primed by stimulating the patient PBMC with 20 μg/ml or 3 μg/ml purified native Der f II, and were assayed in the presence of x-irradiated (3500 Rads) autologous PBMC as antigen-presentingcells.
A study similar to that described in Example VII was carried out to determine the T cell cross-reactivity of the Der p II and Der f II proteins. T cells primed with the Der f II protein were challenged with various Der f II peptides and a set of substantially matching Der p II peptides. […]

[6] = tested on: T cell lines primed in vitro with Der p II; assay: T cell proliferation with fine map and modified Group II peptides (Example XIV); conditions: FIGS. 32a-b
Method: Long term T cell lines were established by stimulation of 2×10^6 PBL/ml in bulk cultures of complete medium (RPMI-1640, 2 mM L-glutamine, 100 U/ml penicillin/streptomycin, 5×10^-5 M 2-mercaptoethanol, and 10 mM HEPES supplemented with 5% heat inactivated human AB serum) with 30 μg/ml of purified native Der p I or Der p II for 5-6 days at 37° C. in a humidified 5% CO2 incubator to select for house dust mite protein allergen reactive T cells. This amount of priming antigen was determined to be optimal for the activation of T cells from house dust mite allergic patients. Viable cells were purified by LSM centrifugation and cultured in complete medium supplemented with 5 units recombinant human IL-2/ml and 5 units recombinant human IL-4/ml for up to three weeks until the cells no longer responded to lymphokines and were considered "rested". The ability of the T cells to proliferate to selected peptides, purified Der p I or Der p II, or positive (PHA) controls or negative controls (medium only) was then assessed. For assay, 2×10^4 rested cells were restimulated in the presence of 2×10^4 autologous Epstein-Barr virus (EBV)-transformed B cells (prepared as described below) (gamma-irradiated with 25,000 RADS) or with 5×10^4 autologous PBMs (gamma-irradiated with 3500 RADS), with 2-50 μg/ml of purified native Der p I or Der p II in a volume of 200 μl complete medium in duplicate or triplicate wells in 96-well round bottom plates for 3 days. Each well then received 1 μCi tritiated thymidine for 16-20 hours. The counts incorporated were collected onto glass fiber filter mats and processed for liquid scintillation counting. […] The titrations were used to optimize the dose of peptides in T cell assays.
The maximum response in a titration of each peptide is expressed as the stimulation index (S.I.). The S.I. is the counts per minute (CPM) incorporated by cells in response to peptide, divided by the CPM incorporated by cells in medium only. […] The positive results were used in calculating mean stimulation indices for each peptide for the individual patient tested.
The above procedure was followed with 18 patients in the studies using peptides derived from Der p I and Der f I (FIGS. 31a-b), and 21 patients in the studies with Der p II peptides (FIGS. 32a-b). Individual patient results were used in calculating the mean S.I. for each peptide if the patient responded to the Der p I or Der p II protein at an S.I. of 2.0 or greater and the patient responded to at least one peptide derived from a house dust mite allergen at an S.I. f 2.0 or greater. A summary of positive experiments from the patients tested is shown in FIGS. 32a and 32b and FIGS. 33a and 33b. The bars represent the positivity index. […] In parenthesis above each bar are the mean stimulation indices for each peptide or protein for the group of patients tested.
Autologous EBV-transformed cell lines were γ-irradiated with 25,000 Rad and used as antigen presenting cells in secondary proliferation assays and secondary bulk stimulations. These EBV-transformed cell lines were made by incubating 5×10^6 PBL with 1 ml of B-59/8 Marmoset cell line (ATCC CRL1612, American Type Culture Collection, Rockville, Md.) conditioned medium in the presence of 1 μg/ml phorbol 12-myristate 13-acetate (PMA) at 37° C. for 60 minutes in 12×75 mm polypropylene round-bottom Falcon snap cap tubes (Becton Dickinson Labware, Lincoln Park, N.J.). These cells were then diluted to 1.25×10^6 cells/ml in RPMI-1640 as described above except supplemented with 10% heat-inactivated fetal bovine serum and cultured in 200 μl aliquots in flat bottom culture plates until visible colonies were detected. They were then transferred to larger wells until the cell lines were established.

With “DP I-7.1: Der p I peptide (AQTHSAIAVIIGIKDLDAFRHYDGRT)” the “T cell stimulation index (S.I.)” value [1] was 2.2 and the T cell reactivity [2] was “significant regions of T cell reactivity”.

With “DP I-12.1: Der p I peptide, native sequence (ELVDCASQHGCHGDTIPRGIE)” the “T cell stimulation index (S.I.)” value [1] was 2.2 and the “difference in mean S.I. or percentage of positive responses, original vs additional (native sequence) peptides” value ([2]; DP I-11/12 vs DP I-11.1/12.1) was “no significant difference”.

In the case of “DP II-4: Der p II peptide (QLEAVFEANQNTKTAKIEIKASIDG)”, the “CPM ± S.D.” value ([3]; 10 μg/ml) is reported as 2126 ± 25 CPM, the “CPM ± S.D.” value ([3]; 30 μg/ml) is reported as 1979 ± 94 CPM and the “CPM ± S.D.” value ([3]; 100 μg/ml) is reported as 2314 ± 116 CPM. The “T-cell reactivity (DPII-22 series development)” value ([4]; Der p II T-cell map and analogs) was “high T-cell reactivity”, the T cell reactivity [4] was “significant T cell reactivity” and the “T cell response to Der p II peptides” value [5] was “respond significantly”.

With “DP I-17: Der p I peptide (GDNGYGYFAANIDLMMIEEYPYVVIL)” the “T cell stimulation index (S.I.)” value [1] was 0.

With “DP I-6.1: Der p I peptide (YPPNANKIREALAQTHSAIAVIIG)” the “T cell stimulation index (S.I.)” value [1] was 2.1 and the T cell reactivity [2] was “significant regions of T cell reactivity”.

“DP I-16: Der p I peptide (HAVNIVGYSNAQGVDYWIVRNS)” was tested, and the “T cell stimulation index (S.I.)” value [1] was 2.0 and the T cell reactivity [2] was “significant regions of T cell reactivity”.

For “DP I-9: Der p I peptide (IIQRDNGYQPNYHAVNIVGYSNA)”, the “T cell stimulation index (S.I.)” value [1] was 2.4 and the T cell reactivity [2] was “significant regions of T cell reactivity”.

“DP II-1: Der p II peptide (DQVDVKDCANHEIKKVLVPG)” was tested, and the T cell reactivity [4] was “significant T cell reactivity”, the T cell response [4] was “responds well” and the “T cell response to Der p II peptides” value [5] was “respond significantly”.

“DP II-7: Der p II peptide (CPLVKGQQYDIKYTWNVPKIAPKSENV)” was tested, and the T cell reactivity [4] was “significant T cell reactivity”, the T cell response [4] was “responds well” and the “T cell response to Der p II peptides” value [5] was “respond significantly”.

“DP II-25: Der p II peptide (TVKVMGDDGVLACAIATHAKIRD)” was tested, and the “stimulation index / response to selected Der p II peptides” value ([5]; 10 patients, FIG. 18a) was “highest stimulation index” and the “T cell response, Group II peptides” value [6] was “positive T cell studies”.

With “DF II-4.5: Der f II peptide (TLEALFDANQNTKTAKIEIKASLDG)” the “T cell response to Der f II peptides” value [4] was “respond significantly”, the T cell reactivity [5] was “significant areas of T cell reactivity” and the T cell response ([5]; patient 384, recombinant Der f II primed, data not shown) was “respond well”.

For “DF II-17: Der f II peptide (CPLVKGQQYDAKYTWNVPKIAPKSENV)”, the “T cell response to Der f II peptides” value [4] was “respond significantly” and the T cell reactivity [5] was “significant areas of T cell reactivity”.
